Laboratory results: ChEMBL document CHEMBL5724914, “Linking interpersonal differences in gut microbiota composition and drug biotransformation activity” (2024)

Columns and labels:
[1] = human gut metagenome, 24 h, 2 µM
[2] = The drug is tested on Z-024 corresponding to pig gut metagenome with ENA study accession number: PRJEB37062 and ENA sample accession number: ERS12561823 for biotransformation under anaerobic condition. The drug concentrations were measured over 9 timepoints collected between 0 and 24 hours of incubation by liquid-chromatography-coupled mass spectrometry (LC–MS); conditions: 2 µM
[3] = The drug is tested on Z-011 corresponding to mouse gut metagenome with ENA study accession number: PRJEB37062 and ENA sample accession number: ERS12561811 for biotransformation under anaerobic condition. The drug concentrations were measured over 9 timepoints collected between 0 and 24 hours of incubation by liquid-chromatography-coupled mass spectrometry (LC–MS); conditions: 2 µM
[4] = The drug is tested on Z-013 corresponding to rabbit gut metagenome with ENA study accession number: PRJEB37062 and ENA sample accession number: ERS12561813 for biotransformation under anaerobic condition. The drug concentrations were measured over 9 timepoints collected between 0 and 24 hours of incubation by liquid-chromatography-coupled mass spectrometry (LC–MS); conditions: 2 µM
[5] = The drug is tested on WLS-052 corresponding to human gut metagenome with ENA study accession number: PRJEB37062 and ENA sample accession number: ERS12561747 for biotransformation under anaerobic condition. The drug concentrations were measured over 9 timepoints collected between 0 and 24 hours of incubation by liquid-chromatography-coupled mass spectrometry (LC–MS); conditions: 2 µM
[6] = The drug is tested on Z-025 corresponding to rabbit gut metagenome with ENA study accession number: PRJEB37062 and ENA sample accession number: ERS12561824 for biotransformation under anaerobic condition. The drug concentrations were measured over 9 timepoints collected between 0 and 24 hours of incubation by liquid-chromatography-coupled mass spectrometry (LC–MS); conditions: 2 µM
[7] = human gut metagenome, 24 h, 2 µM; remark: listed apart in the source
[8] = The drug is tested on Z-004 corresponding to metagenome with ENA study accession number: PRJEB37062 and ENA sample accession number: ERS12561804 for biotransformation under anaerobic condition. The drug concentrations were measured over 9 timepoints collected between 0 and 24 hours of incubation by liquid-chromatography-coupled mass spectrometry (LC–MS); conditions: 2 µM
[9] = human gut metagenome, 24 h, 2 µM; remark: listed apart in the source
Note: call rule not given here.

Row | SMILES | Bacterial Biotransformation [1] | Bacterial Biotransformation [2] | Bacterial Biotransformation [3] | Bacterial Biotransformation [4] | Bacterial Biotransformation [5] | Bacterial Biotransformation [6] | Bacterial Biotransformation [7] | Bacterial Biotransformation [8] | Bacterial Biotransformation [9]
1 | OCCN1CCN(CCCN2c3ccccc3Sc3ccc(C(F)(F)F)cc32)CC1 [FLUPHENAZINE] | Compound metabolized | Compound metabolized | Compound metabolized | Compound NOT metabolized | Compound metabolized | Compound metabolized | Compound metabolized | Compound metabolized | Compound metabolized
2 | COc1ccc2c3c1O[C@H]1C[C@@H](O)C=C[C@@]31CCN(C)C2 [GALANTAMINE] | Compound NOT metabolized | Compound NOT metabolized | Compound NOT metabolized | Compound NOT metabolized | Compound NOT metabolized | Compound NOT metabolized | Compound NOT metabolized | Compound NOT metabolized | Compound NOT metabolized
3 | Cc1ccc(S(=O)(=O)NC(=O)NN2CC3CCCC3C2)cc1 (stereo unspecified) [GLICLAZIDE] | Compound metabolized | Compound metabolized | Compound metabolized | Compound NOT metabolized | Compound metabolized | Compound NOT metabolized | Compound metabolized | Compound NOT metabolized | Compound metabolized
4 | COC1=CC(=O)C[C@@H](C)[C@]12Oc1c(Cl)c(OC)cc(OC)c1C2=O [GRISEOFULVIN] | Compound NOT metabolized | Compound metabolized | Compound metabolized | Compound metabolized | Compound metabolized | Compound metabolized | Compound metabolized | Compound metabolized | Compound metabolized
5 | N#Cc1ccc(C(c2ccc(C#N)cc2)n2cncn2)cc1 [LETROZOLE] | Compound metabolized | Compound metabolized | Compound NOT metabolized | Compound NOT metabolized | Compound NOT metabolized | Compound NOT metabolized | Compound NOT metabolized | Compound NOT metabolized | Compound NOT metabolized
6 | CC(Oc1c(Cl)cccc1Cl)C1=NCCN1 (stereo unspecified) [LOFEXIDINE] | Compound NOT metabolized | Compound NOT metabolized | Compound NOT metabolized | Compound NOT metabolized | Compound NOT metabolized | Compound NOT metabolized | Compound NOT metabolized | Compound NOT metabolized | Compound NOT metabolized
7 | CN(C)C(=O)C(CCN1CCC(O)(c2ccc(Cl)cc2)CC1)(c1ccccc1)c1ccccc1 [LOPERAMIDE] | Compound metabolized | Compound metabolized | Compound NOT metabolized | Compound metabolized | Compound metabolized | Compound metabolized | Compound metabolized | Compound metabolized | Compound metabolized
8 | CCCCc1nc(Cl)c(CO)n1Cc1ccc(-c2ccccc2-c2nn[nH]n2)cc1 [LOSARTAN] | Compound metabolized | Compound NOT metabolized | Compound NOT metabolized | Compound NOT metabolized | Compound NOT metabolized | Compound NOT metabolized | Compound metabolized | Compound NOT metabolized | Compound metabolized
9 | COC(=O)Nc1nc2ccc(C(=O)c3ccccc3)cc2[nH]1 [MEBENDAZOLE] | Compound NOT metabolized | Compound metabolized | Compound metabolized | Compound metabolized | Compound metabolized | Compound metabolized | Compound metabolized | Compound metabolized | Compound metabolized
10 | COc1ccccc1OCC(O)COC(N)=O (stereo unspecified) [METHOCARBAMOL] | Compound NOT metabolized | Compound NOT metabolized | Compound NOT metabolized | Compound NOT metabolized | Compound NOT metabolized | Compound NOT metabolized | Compound NOT metabolized | Compound NOT metabolized | Compound NOT metabolized
11 | CC[C@@H](CO)NC(=O)[C@@H]1C=C2c3cccc4c3c(cn4C)C[C@H]2N(C)C1.O=C(O)/C=C\C(=O)O [METHYSERGIDE MALEATE] | Compound NOT metabolized | Compound NOT metabolized | Compound NOT metabolized | Compound NOT metabolized | Compound NOT metabolized | Compound NOT metabolized | Compound NOT metabolized | Compound NOT metabolized | Compound NOT metabolized
12 | CCN(CC)CCNC(=O)c1cc(Cl)c(N)cc1OC [METOCLOPRAMIDE] | Compound NOT metabolized | Compound NOT metabolized | Compound NOT metabolized | Compound NOT metabolized | Compound NOT metabolized | Compound NOT metabolized | Compound NOT metabolized | Compound NOT metabolized | Compound NOT metabolized
13 | Cc1ccccc1N1C(=O)c2cc(S(N)(=O)=O)c(Cl)cc2NC1C (stereo unspecified) [METOLAZONE] | Compound metabolized | Compound NOT metabolized | Compound NOT metabolized | Compound NOT metabolized | Compound metabolized | Compound metabolized | Compound NOT metabolized | Compound NOT metabolized | Compound NOT metabolized
14 | COCCc1ccc(OCC(O)CNC(C)C)cc1.COCCc1ccc(OCC(O)CNC(C)C)cc1.O=C(O)C(O)C(O)C(=O)O (stereo unspecified) [METOPROLOL TARTRATE] | Compound metabolized | Compound NOT metabolized | Compound NOT metabolized | Compound NOT metabolized | Compound NOT metabolized | Compound metabolized | Compound NOT metabolized | Compound NOT metabolized | Compound NOT metabolized
